These results are taken from publication PMC9883252 (iScience, 2023).

The structures appear in SMILES notation.

Test [1] relates to P. falciparum gametocytes (NF54 and 3601E1). The experiment in a line: Activity against synchronous gametocytes. In kind it is cell-based, Plasmodium falciparum. Particulars: stage V.
Test [2] concerns P. falciparum NF54 strain. The experiment in a line: Inhibition activity in the asexual blood stages. In kind it is cell-based. Particulars: Plasmodium falciparum, NF54, 72 h, read-out: Pf IC50 (mean).

As for `COc1ccc(C[C@H](N)C(=O)N[C@H]2[C@@H](O)[C@H](n3cnc4c(N(C)C)ncnc43)O[C@@H]2CO)cc1` [Puromycin, puromycin], in test [1], the “killing of late stage gametocytes” value was “does not reach complete killing”.

Turning to `COc1ccc2cc1Oc1ccc(cc1)C[C@@H]1NCCc3cc(OC)c4c(c31)Oc1cc3c(cc1O4)CCN(C)[C@H]3C2` [trilobine], in test [2], the IC50 was determined as 410 nM.

What is called IC50 is the midpoint of a concentration-inhibition curve.
